Data set [1] can be described thus: pharmacokinetic profiling in preterm rabbits. Type of data set: in vivo. The following applies: rabbit. Here is the method: A total of 30 preterm rabbits with a GA of 28 days were featured in the pharmacokinetic study. […] Surviving pups were randomized to either receive an intratracheal (IT, local delivery, n = 15) or intraperitoneal (IP, systemic delivery, n = 15) dose of 1 mg/kg of RGZ. For IP injections, RGZ (10 mg/mL in DMSO) was dissolved in H2O + 10% Tween-80 at 0.4 mg/mL and then injected in the right flank based on the pups’ body weight. For IT injections, RGZ (50 mg/mL in DMSO; Merck KGaA) was dissolved in 80 mg/mL of Poractant alfa (Curosurf, Chiesi Farmaceutici, Parma, Italy) at 0.4 mg/mL; the injection volume was based on the pups’ body weight (2.5 mL/kg), as previously described.
Before sample collection, all pups were euthanized with a pentothal sodium overdose. All samples were stored at −20 °C until analysis.
Bioanalysis and quantification were performed using a fit-for-purpose LC/MS/MS method developed internally (LC and MS conditions already described in Section 2.2). Plasma and lung homogenate samples (lungs were homogenized with a water/acetonitrile 50/50 mixture) were extracted by means of protein precipitation with 3 volumes of acetonitrile (Sigma-Aldrich Co, St. Louise, MO, USA), and the supernatant was directly injected into the LC/MS/MS system.
The plasma and lung concentrations of RGZ were determined using a calibration curve prepared in the corresponding blank rabbit matrix (range of calibration: 2–500 ng/mL for plasma; 12–6000 ng/g for lungs) and the accuracy of the quantitation was verified using quality controls prepared in the same matrix and back-calculated on the curve.
Pharmacokinetic parameters were calculated by non-compartmental analysis using Phoenix WinNonlin (Certara L.P., Princeton, NJ, USA). The following PK parameters were calculated: Tmax, time of the maximum concentration; Cmax, maximum concentration; t1/2, half-life (calculable only in case of well-defined elimination phase); AUClast, area under the curve up to the last time point.

The next data set has as its system PPARγ. Kind of data set: target engagement (TE%) evaluation from unbound plasma concentration and EC50. On the procedure: In a subsequent experimental session, we investigated the pulmonary outcomes of a higher intraperitoneal RGZ dose. To define the RGZ dose, a target engagement (TE%) evaluation was performed based on the unbound plasma and EC50 values for RGZ previously determined in vitro. […] TE% at each time point was calculated according to the following formula.

The nature of data set [2]: Caco-2 permeability assay. To be noted: human, basolateral to apical. Type of data set: in vitro ADME. In general terms: Passage across Caco-2 layers is used to estimate intestinal permeability.
Details of data set [3]: method as in PMID 20729387. To be noted: newborn mice, mothers received two antenatal doses of 3 mg/kg 48 and 72 h prior to delivery; cited from earlier work.
Details of data set [4]: method as in PMID 16617452. The following applies: newborn rats; cited from earlier work.
A further data set has as its system newborn rats. More on the design: method as in PMID 19262292. To be noted: daily i.p. doses as low as 0.3 mg/kg; cited from earlier work.
[5] abbreviates: inhaled or intranasal, plasma, intratracheal 1 mg/kg.
Setting [6] is: ip, plasma, intraperitoneal 1 mg/kg.

Where two headings read alike, the source gives them in different places.

The source of these data is publication PMC9320886, “Daily Intraperitoneal Administration of Rosiglitazone Does Not Improve Lung Function or Alveolarization in Preterm Rabbits Exposed to Hyperoxia” (Pharmaceutics, 2022).

For `CN(CCOc1ccc(CC2SC(=O)NC2=O)cc1)c1ccccn1` (centres unmarked) [RGZ, rosiglitazone], the half-life (usually the time in which the quantity being followed falls by half) in data set [1] (inhaled or intranasal, lung, intratracheal 1 mg/kg) was 900 min. In addition, the AUC(0-t) (usually the area under the concentration-time curve up to a stated or last time point) in data set [1] (setting [5]) was determined as 25800 ng·h/mL. In addition, the Cmax (commonly the peak of the concentration-time curve) in data set [1] (setting [5]) is 1950 ng/mL; in data set [1] (ip, lung, intraperitoneal 1 mg/kg), 1020 ng/g; in data set [1] (setting [6]), 2440 ng/mL. Besides, the Tmax in data set [1] (setting [5]) and in data set [1] (setting [6]) was 15 min in each case. Also, in data set [1] (lung and plasma, ip, intraperitoneal 1 mg/kg, read-out: AUCLung/AUCPlasma), the Kp turned out to be 0.7. Further, the “target engagement (TE%)” value with PPARγ is listed as 40–60%; with PPARγ (linear scaling model to intraperitoneal 10 mg/kg), more than 90%; in the data set with PPARγ (listed as rosiglitazone) it was 50%. Besides, the Papp B→A (as a rule, how fast a substance crosses the layer from the basolateral side) at 2 h, 10 µM was 11.4 ×10⁻⁶ cm/s in data set [2] (Caco-2, pH 7.4, with Elacridar (GF120918), concentration not given, with Elacridar, read-out: Papp with Pgp Inhibitor (B–A) (converted)) and 10 ×10⁻⁶ cm/s in data set [2] (Caco-2, pH 7.4, 2 h, without Pgp inhibitor, read-out: Papp (B–A) (converted)). Also, in data set [3], the plasma levels was 350 ng/mL. In data set [4], the “plasma levels reported to protect the lungs from hyperoxia” value was 350 ng/mL. Further, the alveolarization entry with newborn rats is reported as “enhanced”. Further, the “surfactant synthesis (lamellar body count, SP-B and SP-C expression)” value in the data set with newborn rats is on record as “significantly promoted”.
